In ChEMBL document CHEMBL1133583, “Design of cancer-specific antitumor agents based on aziridinylcyclopent[b]indoloquinones” (J Med Chem, 2000):

Legend:
Assay type in all cases: functional
Breast carcinoma cell = test: In vitro cytotoxicity against breast cancer cells.; conditions: Homo sapiens
CNS carcinoma cell = test: In vitro cytotoxicity against CNS cancer cells; conditions: Homo sapiens
Colon carcinoma cell = test: In vitro cytotoxicity against colon cancer cells; conditions: Homo sapiens
[1] = In vitro cytotoxicity against Leukemia cancer cells.; conditions: Homo sapiens, Cancer cell lines
Melanoma cell = test: In vitro cytotoxicity against melanoma cancer cells; conditions: Homo sapiens
Homo sapiens = species on record: Homo sapiens; test: In vitro cytotoxicity against non-small-cell lung cancer cells; conditions: Cancer cell lines, read-out: Log LC50 (the source's name) (converted)
Ovarian carcinoma cell = test: In vitro cytotoxicity against ovarian cancer cells; conditions: Homo sapiens
Prostatic carcinoma cell = test: In vitro cytotoxicity against prostate cancer cells.; conditions: Homo sapiens, read-out: Log LC50 (the source's name) (converted)
Renal cancer cell line = test: (§1) In vitro cytotoxicity against renal cancer cells.; conditions: Homo sapiens, read-out: Log LC50 (the source's name) (converted)
[2] = as §1; conditions: Homo sapiens, Cancer cell lines; read-out: Log LC50 (the source's name) (converted)

CC(=O)OC1CCc2c3c(n(C(C)=O)c21)C(=O)C(N1CC1)=C(C)C3=O (stereo not drawn)
LC50 (concentration killing 50% of cells) (Breast carcinoma cell): 31.6 µM
LC50 (CNS carcinoma cell): 17.8 µM
LC50 (50% lethal concentration) (Colon carcinoma cell): 17 µM
LC50 (lethal concentration 50%) [1]: > 100 µM
LC50 (Melanoma cell): 8.71 µM
CC50 (Homo sapiens): 38 µM
LC50 (Ovarian carcinoma cell): 66.1 µM
CC50 (Prostatic carcinoma cell): 19.5 µM
CC50 (Renal cancer cell line): 16.6 µM

COC1CCc2c1[nH]c1c2C(=O)C(C)=C(N2CC2)C1=O (stereo not drawn)
LC50 (concentration killing 50% of cells) (Breast carcinoma cell): 46.8 µM
LC50 (CNS carcinoma cell): 67.6 µM
LC50 (50% lethal concentration) (Colon carcinoma cell): 47.9 µM
LC50 (lethal concentration 50%) [1]: 87.1 µM
LC50 (Melanoma cell): 12 µM
CC50 (Homo sapiens): 63.1 µM
LC50 (Ovarian carcinoma cell): > 100 µM
CC50 (Prostatic carcinoma cell): 34.7 µM
CC50 [2]: 26.3 µM

CC(=O)OC1CCc2c1[nH]c1c2C(=O)C(C)=C(N2CC2)C1=O (stereo not drawn)
LC50 (concentration killing 50% of cells) (Breast carcinoma cell): 29.5 µM
LC50 (CNS carcinoma cell): 20 µM
LC50 (50% lethal concentration) (Colon carcinoma cell): 14.1 µM
LC50 (lethal concentration 50%) [1]: 50.1 µM
LC50 (Melanoma cell): 10.2 µM
CC50 (Homo sapiens): 22.4 µM
LC50 (Ovarian carcinoma cell): 39.8 µM
CC50 (Prostatic carcinoma cell): 23.4 µM
CC50 (Renal cancer cell line): 19.1 µM

CC1=C(N2CC2)C(=O)c2c([nH]c(C)c2C)C1=O
CC50 (Homo sapiens): 51.3 µM
CC50 (Prostatic carcinoma cell): > 100 µM
CC50 [2]: > 100 µM

CC(=O)OCc1[nH]c2c(c1C)C(=O)C(N1CC1)=C(C)C2=O
LC50 (concentration killing 50% of cells) (Breast carcinoma cell): 26.9 µM
LC50 (CNS carcinoma cell): 14.8 µM
LC50 (50% lethal concentration) (Colon carcinoma cell): 8.32 µM
LC50 (lethal concentration 50%) [1]: > 100 µM
LC50 (Melanoma cell): 2.29 µM
CC50 (Homo sapiens): 33.1 µM
LC50 (Ovarian carcinoma cell): 34.7 µM
CC50 (Prostatic carcinoma cell): 9.77 µM
CC50 (Renal cancer cell line): 28.8 µM

CC1=C(N2CC2)C(=O)c2[nH]c(C)c(C)c2C1=O
LC50 (concentration killing 50% of cells) (Breast carcinoma cell): > 100 µM
LC50 (CNS carcinoma cell): > 100 µM
LC50 (50% lethal concentration) (Colon carcinoma cell): 89.1 µM
LC50 (lethal concentration 50%) [1]: > 100 µM
LC50 (Melanoma cell): 70.8 µM
CC50 (Homo sapiens): 50.1 µM
LC50 (Ovarian carcinoma cell): > 100 µM
CC50 (Prostatic carcinoma cell): > 100 µM
CC50 (Renal cancer cell line): > 100 µM

CC1=C(N2CC2)C(=O)c2[nH]c(CO)c(C)c2C1=O
LC50 (concentration killing 50% of cells) (Breast carcinoma cell): 89.1 µM
LC50 (CNS carcinoma cell): 89.1 µM
LC50 (50% lethal concentration) (Colon carcinoma cell): 63.1 µM
LC50 (lethal concentration 50%) [1]: > 100 µM
LC50 (Melanoma cell): 39.8 µM
CC50 (Homo sapiens): 79.4 µM
LC50 (Ovarian carcinoma cell): > 100 µM
CC50 (Prostatic carcinoma cell): 63.1 µM
CC50 [2]: 58.9 µM

CC1=C(N2CC2)C(=O)c2[nH]c3c(c2C1=O)CCC3=O
LC50 (concentration killing 50% of cells) (Breast carcinoma cell): 12.6 µM
LC50 (CNS carcinoma cell): 7.41 µM
LC50 (50% lethal concentration) (Colon carcinoma cell): 3.63 µM
LC50 (lethal concentration 50%) [1]: > 100 µM
LC50 (Melanoma cell): 1.02 µM
CC50 (Homo sapiens): 4.27 µM
LC50 (Ovarian carcinoma cell): 13.8 µM
CC50 (Prostatic carcinoma cell): 15.8 µM
CC50 (Renal cancer cell line): 4.57 µM

CC(=O)OCc1[nH]c2c(c1C)C(=O)C(C)=C(N1CC1)C2=O
LC50 (concentration killing 50% of cells) (Breast carcinoma cell): > 100 µM
LC50 (CNS carcinoma cell): > 100 µM
LC50 (50% lethal concentration) (Colon carcinoma cell): > 100 µM
LC50 (lethal concentration 50%) [1]: > 100 µM
LC50 (Melanoma cell): 70.8 µM
CC50 (Homo sapiens): 79.4 µM
LC50 (Ovarian carcinoma cell): > 100 µM
CC50 (Prostatic carcinoma cell): > 100 µM
CC50 [2]: 72.4 µM

CC1=C(N2CC2)C(=O)c2[nH]c3c(c2C1=O)CCC3O (stereo not drawn)
LC50 (concentration killing 50% of cells) (Breast carcinoma cell): 33.9 µM
LC50 (CNS carcinoma cell): 28.8 µM
LC50 (50% lethal concentration) (Colon carcinoma cell): 35.5 µM
LC50 (lethal concentration 50%) [1]: 87.1 µM
LC50 (Melanoma cell): 14.1 µM
CC50 (Homo sapiens): 60.3 µM
LC50 (Ovarian carcinoma cell): 89.1 µM
CC50 (Prostatic carcinoma cell): 31.6 µM
CC50 [2]: 18.6 µM

CC1=C(N2CC2)C(=O)c2c([nH]c(CO)c2C)C1=O
LC50 (concentration killing 50% of cells) (Breast carcinoma cell): 27.5 µM
LC50 (CNS carcinoma cell): > 100 µM
LC50 (50% lethal concentration) (Colon carcinoma cell): 47.9 µM
LC50 (lethal concentration 50%) [1]: > 100 µM
LC50 (Melanoma cell): 4.07 µM
CC50 (Homo sapiens): 42.7 µM
LC50 (Ovarian carcinoma cell): > 100 µM
CC50 (Prostatic carcinoma cell): 16.6 µM
CC50 (Renal cancer cell line): 29.5 µM
